11 compounds from ChEMBL document CHEMBL5226295, “Targeting Bromodomain and Extraterminal Proteins for Drug Discovery: From Current Progress to Technological Development” (J Med Chem, 2021) can be followed below.

Molecules are shown by their SMILES.

Broadly, the Kd is the free concentration of one partner at which half of the binding sites on the other are occupied at equilibrium, for simple one-to-one binding. Broadly, the IC50 is the concentration that inhibits the measured activity by half. What is called DC50 is the concentration giving 50% degradation. By inhibition is commonly meant the percentage by which the read-out fell short of the control. As a reminder, the EC50 is the concentration needed to bring the measured effect to its halfway point.

Test [1] concerns the target T1, Bromodomain-containing protein 4 (Homo sapiens, UniProt O60885). Briefly: Inhibition of poly His-tagged BRD4 BD1 (unknown origin) ([…] residues) by TR-FRET assay. Background: In TR-FRET formats the signal depends on donor and acceptor labels being close together.
Test [2] deals with T1, Bromodomain-containing protein 4. Briefly: Inhibition of poly His-tagged BRD4 BD2 (unknown origin) (348 to 455 residues) by TR-FRET assay.
Test [3] can be described thus: Antiproliferative activity against human Triple-negative breast cancer cells assessed as cell growth inhibition incubated for 4 days by CellTiter Glo assay. It counts as functional, cell-based. The settings on record: 96 h.
In test [4] the target is von Hippel-Lindau disease tumor suppressor/Bromodomain-containing protein 4 (Homo sapiens, UniProt O60885+P40337). Kind of test: Protac activity at BRD4/VHL E3 ligase in human SU-DHL-4 cells assessed as induction of BRD4 degradation incubated for 14 hrs by immunoblot analysis. Format: cell-based. (A western blot detects proteins with antibodies after separation by electrophoresis.)
Sequence of von Hippel-Lindau disease tumor suppressor/Bromodomain-containing protein 4 (P40337 whole entry, looked up, other chains not shown): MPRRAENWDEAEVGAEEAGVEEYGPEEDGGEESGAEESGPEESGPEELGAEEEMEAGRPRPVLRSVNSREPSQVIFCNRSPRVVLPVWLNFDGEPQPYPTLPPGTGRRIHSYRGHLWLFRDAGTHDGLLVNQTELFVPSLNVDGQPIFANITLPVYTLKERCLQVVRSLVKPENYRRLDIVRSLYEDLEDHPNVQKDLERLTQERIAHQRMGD

In test [5] the target is T1, Bromodomain-containing protein 4. Kind of test: Inhibition of GST-tagged BRD4 BD1 (unknown origin) using H4(1 to 21 residues) biotinylated peptide as substrate at 10 uM incubated for 3 hrs by HTFR assay.
For another test, the target named is Histone deacetylase 3 (Homo sapiens, UniProt O15379). Kind of test: Inhibition of recombinant human HDAC3 using Boc-Lys(Ac)-AMC as substrate preincubated for 15 mins followed by substrate addition and measured after 60 mins by fluorescence based assay.
Sequence of Histone deacetylase 3 (O15379 whole entry, the tested form may be a part): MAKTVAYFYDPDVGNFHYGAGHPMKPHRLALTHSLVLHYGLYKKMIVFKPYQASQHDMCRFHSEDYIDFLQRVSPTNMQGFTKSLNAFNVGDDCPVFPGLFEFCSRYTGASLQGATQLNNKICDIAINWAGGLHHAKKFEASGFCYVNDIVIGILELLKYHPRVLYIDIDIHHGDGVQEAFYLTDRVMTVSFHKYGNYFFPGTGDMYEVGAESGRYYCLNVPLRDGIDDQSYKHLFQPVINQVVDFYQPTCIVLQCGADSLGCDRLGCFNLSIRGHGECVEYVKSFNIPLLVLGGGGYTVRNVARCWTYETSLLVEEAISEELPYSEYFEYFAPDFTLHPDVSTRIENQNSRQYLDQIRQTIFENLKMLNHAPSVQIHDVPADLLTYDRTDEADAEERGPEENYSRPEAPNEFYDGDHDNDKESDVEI
Test [6] deals with T1, Bromodomain-containing protein 4. Briefly: Inhibition of poly His-tagged BRD4 BD2 (unknown origin) (348 to 455 residues) by BROMOscan assay.
Test [7] shares this target. Briefly: Inhibition of poly His-tagged BRD4 BD1 (unknown origin) ([…] residues) by BROMOscan assay.
For test [8] the target is unchanged. Kind of test: Binding affinity to BRD4 BD1 (unknown origin) assessed as dissociation constant by ITC analysis. A general note: Isothermal titration calorimetry measures the heat released or taken up as one component is titrated into another.
For a further test, the species on record is Homo sapiens. Kind of test: Selectivity for BRD4 BD1 (unknown origin) over BRD4 BD2 (unknown origin) assessed as fold change.
For test [9], the target named is T1, Bromodomain-containing protein 4. Kind of test: Binding affinity to BRD4 BD2 (unknown origin) assessed as dissociation constant by ITC analysis.
Test [10] deals with Protein cereblon/Bromodomain-containing protein 4 (Homo sapiens, UniProt O60885+Q96SW2). Kind of test: Protac activity at CRBN/BRD4 in human SUM149PT assessed as induction of BRD4 degradation incubated for 18 hrs by immunoblot analysis. It counts as cell-based.
Sequence of Protein cereblon/Bromodomain-containing protein 4 (Q96SW2 whole entry, looked up, other chains not shown): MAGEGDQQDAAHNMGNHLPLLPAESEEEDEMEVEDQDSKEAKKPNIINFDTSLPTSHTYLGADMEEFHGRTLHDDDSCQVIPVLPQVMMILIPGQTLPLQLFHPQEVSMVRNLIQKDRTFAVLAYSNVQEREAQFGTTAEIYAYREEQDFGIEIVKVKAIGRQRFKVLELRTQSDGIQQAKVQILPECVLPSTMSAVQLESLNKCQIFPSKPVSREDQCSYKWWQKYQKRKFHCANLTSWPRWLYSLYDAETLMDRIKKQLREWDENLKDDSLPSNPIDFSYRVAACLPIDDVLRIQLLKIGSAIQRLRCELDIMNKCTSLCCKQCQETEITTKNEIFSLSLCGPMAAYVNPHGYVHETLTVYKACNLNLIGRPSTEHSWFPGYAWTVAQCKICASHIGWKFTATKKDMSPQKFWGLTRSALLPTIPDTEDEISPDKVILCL
For test [11], the target named is T1, Bromodomain-containing protein 4. Briefly: Inhibition of recombinant human BRD4 BD2 measured after 2 hrs by TR-FRET assay.
For test [12] the target is unchanged. Kind of test: Inhibition of recombinant human BRD4 BD1 measured after 2 hrs by TR-FRET assay.
Test [13] addresses Poly [ADP-ribose] polymerase 1 (Homo sapiens) (UniProt P09874). Kind of test: Inhibition of PARP1 (unknown origin) using NAD+ as substrate incubated for 60 mins by ELISA.

Sequence of Poly [ADP-ribose] polymerase 1 (Homo sapiens) (P09874 whole entry): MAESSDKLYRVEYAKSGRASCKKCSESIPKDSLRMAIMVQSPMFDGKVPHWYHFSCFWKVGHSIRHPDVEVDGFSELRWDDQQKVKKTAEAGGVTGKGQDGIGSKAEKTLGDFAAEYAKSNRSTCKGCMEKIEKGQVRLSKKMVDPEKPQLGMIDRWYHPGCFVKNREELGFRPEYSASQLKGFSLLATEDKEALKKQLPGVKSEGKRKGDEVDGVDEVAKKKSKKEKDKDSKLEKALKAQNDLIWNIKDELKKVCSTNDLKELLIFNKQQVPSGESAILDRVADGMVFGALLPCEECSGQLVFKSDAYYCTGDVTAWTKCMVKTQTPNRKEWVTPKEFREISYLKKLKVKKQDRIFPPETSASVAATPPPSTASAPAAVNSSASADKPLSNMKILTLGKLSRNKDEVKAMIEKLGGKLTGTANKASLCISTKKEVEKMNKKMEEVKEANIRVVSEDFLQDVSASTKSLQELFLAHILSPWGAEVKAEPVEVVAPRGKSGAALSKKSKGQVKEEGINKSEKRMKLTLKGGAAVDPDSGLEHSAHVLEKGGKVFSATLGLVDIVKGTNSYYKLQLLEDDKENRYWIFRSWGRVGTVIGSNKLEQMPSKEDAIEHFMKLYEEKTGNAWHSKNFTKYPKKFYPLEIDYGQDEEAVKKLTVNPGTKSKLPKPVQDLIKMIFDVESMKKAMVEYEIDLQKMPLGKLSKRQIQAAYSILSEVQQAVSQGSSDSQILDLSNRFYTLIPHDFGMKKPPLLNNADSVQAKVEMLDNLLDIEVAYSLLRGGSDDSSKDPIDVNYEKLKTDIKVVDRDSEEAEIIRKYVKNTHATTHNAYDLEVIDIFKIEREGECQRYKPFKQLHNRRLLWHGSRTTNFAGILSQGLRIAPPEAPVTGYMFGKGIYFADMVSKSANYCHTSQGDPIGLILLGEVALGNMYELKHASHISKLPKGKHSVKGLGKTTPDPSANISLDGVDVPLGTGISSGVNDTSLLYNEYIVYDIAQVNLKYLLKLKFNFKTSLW

For the compound `CC(=O)N1c2ccc(-c3cc[nH]n3)cc2[C@H](Nc2ccc(C#N)cc2)C[C@@H]1C`, the dissociation constant Kd in [1] was 301 nM; in test [2], 2 nM.

Regarding `CCn1nc(C2CC2)cc1Nc1nc(C(=O)NCCCOCCOCCOCCCNc2cccc3c2C(=O)N(C2CCC(=O)NC2=O)C3=O)nc2[nH]c3cc(-c4c(C)noc4C)c(OC)cc3c12` (configuration not stated), in test [3], the 50% inhibitory concentration (IC50) was below 10 nM.

Take `Cc1sc2c(c1C)C(c1ccc(Cl)cc1)=N[C@@H](CC(=O)NCCOCCOCCNC(=O)c1cccc(S(=O)(=O)Nc3ccc(C)c4c(C#N)c[nH]c34)c1)c1nnc(C)n1-2`: the DC50 in [4] turned out to be 10800 nM. As for `Cc1noc(C)c1-c1ccc2c(c1)C(Cc1ccc(F)cc1)CN2CCCCCCC(=O)NO` (configuration not stated), in test [5], the inhibition turned out to be 88%. The IC50 at Histone deacetylase 3 amounted to 5 nM. Take `COC(=O)c1ccc(N[C@@H]2C[C@H](C)N(C(C)=O)c3ccc(-c4cccc(NC(C)=O)c4)cc32)cc1`: the results for the IC50 in test [6] and in test [7] were 0.42 nM and 27 nM, respectively. Take `CC(=O)N[C@H](CSCCCCCCNC(=O)C[C@H]1N=C(c2ccc(Cl)cc2)c2c(sc(C)c2C)-n2c(C)nnc21)C(=O)N1C[C@@H](O)C[C@@H]1C(=O)NCc1ccc(-c2scnc2C)cc1`: the Kd in [8] came to 44 nM.

For the compound `COCc1nc2cnc3cc(-c4c(C)noc4C)c(OC[C@H]4CCNC4)cc3c2n1[C@H](C)c1ccccc1`, the Selectivity ratio in the test listed under Homo sapiens is above 130.

For the compound `CC1=C(C)C2C(c3ccc(Cl)cc3)N[C@@](C)(CC(=O)NCCOCCOCCOCC(=O)N[C@H](C(=O)N3C[C@H](O)C[C@H]3C(=O)NCc3ccc(-c4scnc4C)cc3)C(C)(C)C)c3nnc(C)n3C2S1` (some centres not stated), the figures for the equilibrium dissociation constant (Kd) in test [9] and in test [8] were 120 nM and 382 nM, respectively. Take `Cc1sc2c(c1C)C(c1ccc(Cl)cc1)=N[C@@H](CC(=O)NCCCCNC(=O)COc1cccc3c1C(=O)N(C1CCC(=O)NC1=O)C3O)c1nnc(C)n1-2` (some centres not stated): the EC50 in test [10] is 430 nM.

As for `COc1cc(OC)c2c(=O)[nH]c(-c3ccc(OCCOc4ccccc4C(N)=O)cc3)nc2c1`, the half-maximal inhibitory concentration (IC50) in test [11] is 379 nM; in [12], 440 nM. For the same compound, the inhibition in test [13] is below 60%. For the compound `CC(=O)Nc1c(F)cc(C(=O)N[C@H]2CC[C@H](O)CC2)cc1O[C@@H](C)c1ccccc1`, in the test filed under Homo sapiens, the Selectivity ratio was above 300.
